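Assay format: 96-well plates, 48-hour exposure. GI50 = concentration required for 50% inhibition of growth.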 Activity calls are given as the source filed them. Rule as the data show it: active = GI50 up to about 1.1 µM and inactive = higher.
Columns and labels:
Experiment in all cases: inhibition of tumour cell growth, NCI panel, 48 h
MOLT-4 = system: MOLT-4
HOP-92 = system: HOP-92
SK-MEL-5 = system: SK-MEL-5
PC-3 = system: PC-3
SR = system: SR
SK-MEL-28 = system: SK-MEL-28
SN12C = system: SN12C
ACHN = system: ACHN
MDA-N = system: MDA-N
U-251 = system: U-251
NCI-H460 = system: NCI-H460
UO-31 = system: UO-31
TK-10 = system: TK-10
SF-295 = system: SF-295
NCI-H226 = system: NCI-H226
SF-268 = system: SF-268
UACC-62 = system: UACC-62
MCF7 = system: MCF7
HL-60 = system: HL-60
Malme-3M = system: Malme-3M

Measured: GI50

CC(C)(C)NCC(O)c1ccc(O)c(CO)n1 (stereo not given)
inactive: MOLT-4 > 100 µM | HOP-92 > 100 µM | SK-MEL-5 > 100 µM | PC-3 > 100 µM | SR > 100 µM | SK-MEL-28 > 100 µM | SN12C > 100 µM | ACHN > 100 µM | MDA-N > 100 µM | U-251 > 100 µM | NCI-H460 > 100 µM | UO-31 > 100 µM | TK-10 > 100 µM | SF-295 > 100 µM | NCI-H226 > 100 µM | SF-268 > 100 µM | UACC-62 > 100 µM | MCF7 > 100 µM | HL-60 > 100 µM

CC(N/N=C(\S)N1CCN(c2ccccn2)CC1)c1cccc[n+]1[O-] (stereo not given)
inactive: MOLT-4 2.58 µM | HOP-92 20.5 µM | SK-MEL-5 12.5 µM | PC-3 15.3 µM | SR 4.58 µM | SK-MEL-28 16.8 µM | SN12C 23.6 µM | ACHN 6.01 µM | MDA-N 18.4 µM | U-251 12.8 µM | NCI-H460 5.31 µM | UO-31 8.13 µM | TK-10 32 µM | SF-295 12.3 µM | NCI-H226 34.9 µM | SF-268 22.8 µM | UACC-62 2.95 µM | MCF7 13.2 µM | HL-60 3.13 µM

O=C1CC(CC(OCc2ccccc2)C(COCc2ccccc2)OCc2ccccc2)CC(=O)N1 (stereo not given)
inactive: MOLT-4 24.3 µM | HOP-92 39.2 µM | SK-MEL-5 15.4 µM | Malme-3M 19.9 µM | PC-3 24.7 µM | SR 34.3 µM | SK-MEL-28 63.4 µM | SN12C 44.6 µM | ACHN 30.3 µM | MDA-N 30.1 µM | U-251 32.5 µM | NCI-H460 32.4 µM | UO-31 16 µM | SF-295 34.9 µM | NCI-H226 44.1 µM | SF-268 58.1 µM | MCF7 33.1 µM | HL-60 28 µM

O=c1n(N=[S+]([O-])(c2ccccc2)c2ccccc2)c(=O)n2n1C1C=CC2CC1
inactive: MOLT-4 > 100 µM | HOP-92 > 100 µM | SK-MEL-5 > 100 µM | PC-3 > 100 µM | SR > 100 µM | SK-MEL-28 > 100 µM | SN12C > 100 µM | ACHN > 100 µM | MDA-N > 100 µM | U-251 > 100 µM | NCI-H460 > 100 µM | UO-31 > 100 µM | TK-10 > 100 µM | SF-295 > 100 µM | NCI-H226 > 100 µM | SF-268 > 100 µM | UACC-62 > 100 µM | MCF7 > 100 µM | HL-60 > 100 µM

CCCCCCOP(=O)(OCCCCCC)OC(C(=O)OC)C(F)(F)F (stereo not given)
inactive: MOLT-4 > 100 µM | HOP-92 > 100 µM | SK-MEL-5 > 100 µM | Malme-3M > 100 µM | PC-3 > 100 µM | SR > 100 µM | SK-MEL-28 > 100 µM | SN12C > 100 µM | ACHN > 100 µM | MDA-N > 100 µM | U-251 > 100 µM | UO-31 > 100 µM | TK-10 > 100 µM | SF-295 > 100 µM | NCI-H226 > 100 µM | SF-268 > 100 µM | UACC-62 > 100 µM | MCF7 > 100 µM | HL-60 > 100 µM

Cc1nc(SCC(N)=O)c2sc(=S)n(-c3ccccc3)c2n1
inactive: MOLT-4 > 10 µM | HOP-92 > 10 µM | SK-MEL-5 > 10 µM | Malme-3M > 10 µM | PC-3 > 10 µM | SR > 10 µM | SK-MEL-28 > 10 µM | SN12C > 10 µM | ACHN > 10 µM | MDA-N > 10 µM | U-251 > 10 µM | NCI-H460 > 10 µM | TK-10 > 10 µM | SF-295 > 10 µM | NCI-H226 > 10 µM | SF-268 > 10 µM | UACC-62 > 10 µM | MCF7 > 10 µM | HL-60 > 10 µM

N/C(=N\O)N/N=C/c1ccc2c(c1)OCO2
inactive: MOLT-4 24.8 µM | HOP-92 20.8 µM | SK-MEL-5 15.4 µM | Malme-3M 17.5 µM | PC-3 26.2 µM | SR 7.87 µM | SK-MEL-28 46 µM | SN12C 34.4 µM | ACHN 20 µM | MDA-N 36.5 µM | U-251 36.6 µM | NCI-H460 27 µM | TK-10 55 µM | SF-295 33.9 µM | NCI-H226 10.8 µM | SF-268 13.9 µM | UACC-62 13.5 µM | MCF7 28.6 µM | HL-60 18.2 µM

COc1ccc(-c2c(N)n(-c3nc4ccccc4s3)c(=O)c3cc([N+](=O)[O-])ccc23)cc1
inactive: MOLT-4 3.18 µM | HOP-92 16.4 µM | Malme-3M 20.7 µM | PC-3 30.8 µM | SR 8.39 µM | SK-MEL-28 > 100 µM | ACHN 22 µM | MDA-N 70.5 µM | U-251 7.6 µM | NCI-H460 3.69 µM | UO-31 16.3 µM | TK-10 38.1 µM | SF-295 22.3 µM | NCI-H226 37.3 µM | SF-268 17.2 µM | UACC-62 > 100 µM | MCF7 44.8 µM | HL-60 99.8 µM

From ChEMBL document CHEMBL1201862, “PubChem BioAssay data set” (2004)
